Experimental data: ChEMBL document CHEMBL5512659, “Structure optimizing of flavonoids against both MRSA and VRE” (Eur J Med Chem, 2024)
Converted amounts (≈) assume the structure as drawn.

Legend:
Assay type in all cases: functional
Staphylococcus aureus [1] = assay: Antibacterial activity against methicillin resistant Staphylococcus aureus clinical isolate 011
Enterococcus faecalis [2] = assay: Antibacterial activity against Enterococcus faecalis clinical isolate 7
Staphylococcus aureus [3] = assay: Antibacterial activity against Staphylococcus aureus clinical isolate 29
Staphylococcus aureus [4] = assay: Antibacterial activity against methicillin resistant Staphylococcus aureus clinical isolate 031
Enterococcus faecalis [5] = assay: Antibacterial activity against Enterococcus faecalis clinical isolate 13
Enterococcus faecalis [6] = assay: Antibacterial activity against multidrug resistant Enterococcus faecalis ATCC 51299
Staphylococcus aureus [7] = assay: Antibacterial activity against Staphylococcus aureus clinical isolate 31
Staphylococcus aureus [8] = assay: Antibacterial activity against methicillin resistant Staphylococcus aureus clinical isolate 003

Structure (SMILES)	MIC (Staphylococcus aureus [1]) [µg/mL]	MIC (Enterococcus faecalis [2]) [µg/mL]	MIC (Staphylococcus aureus [3]) [µg/mL]	MIC (Staphylococcus aureus [4]) [µg/mL]	MIC (Enterococcus faecalis [5]) [µg/mL]	MIC (Enterococcus faecalis [6]) [µg/mL]	MIC (Staphylococcus aureus [7]) [µg/mL]	MIC (Staphylococcus aureus [8]) [µg/mL]
CCCCCCNCCCCOc1ccc(-c2oc3cc(OC)cc(O)c3c(=O)c2CCCCCC)c(OCCCCNCCCCCC)c1	16 (≈ 23 µM)	32 (≈ 46 µM)	16 (≈ 23 µM)	8 (≈ 11.5 µM)	64 (≈ 92.1 µM)	64 (≈ 92.1 µM)	4 (≈ 5.76 µM)	8 (≈ 11.5 µM)
CCCCCCc1c(-c2ccc(OCCCCNCc3ccc(Br)cc3)cc2OCCCCNCc2ccc(Br)cc2)oc2cc(OC)cc(O)c2c1=O	64 (≈ 74 µM)	> 64	> 64		> 64	> 64	64 (≈ 74 µM)	64 (≈ 74 µM)
CCCCCCc1c(-c2ccc(OCCCCNCc3ccc(Cl)cc3)cc2OCCCCNCc2ccc(Cl)cc2)oc2cc(OC)cc(O)c2c1=O	16 (≈ 20.6 µM)	32 (≈ 41.2 µM)	32 (≈ 41.2 µM)	32 (≈ 41.2 µM)	32 (≈ 41.2 µM)	32 (≈ 41.2 µM)	16 (≈ 20.6 µM)	32 (≈ 41.2 µM)
CCCCCCc1c(-c2ccc(OCC(=O)CN[C@H](CCCNC(=N)N)C(N)=O)cc2OCC(=O)CN[C@H](CCCNC(=N)N)C(N)=O)oc2cc(OC)cc(O)c2c1=O	32 (≈ 38.1 µM)	> 64	32 (≈ 38.1 µM)	8 (≈ 9.54 µM)	> 64	> 64	8 (≈ 9.54 µM)	8 (≈ 9.54 µM)
CCCCCCc1c(-c2ccc(OCCCCCCN(C)C)cc2OCCCCCCN(C)C)oc2cc(OC)cc(O)c2c1=O	4 (≈ 6.26 µM)	4 (≈ 6.26 µM)	2 (≈ 3.13 µM)	2 (≈ 3.13 µM)	1 (≈ 1.57 µM)	4 (≈ 6.26 µM)	2 (≈ 3.13 µM)	2 (≈ 3.13 µM)
CCCCCCc1c(-c2ccc(OCCCCNCc3ccco3)cc2OCCCCNCc2ccco2)oc2cc(OC)cc(O)c2c1=O	2 (≈ 2.91 µM)	4 (≈ 5.82 µM)	2 (≈ 2.91 µM)	4 (≈ 5.82 µM)	2 (≈ 2.91 µM)	4 (≈ 5.82 µM)	4 (≈ 5.82 µM)	2 (≈ 2.91 µM)
CCCCCCc1c(-c2ccc(OCCCCN(CC)CC)cc2OCCCCN(CC)CC)oc2cc(OC)cc(O)c2c1=O	2 (≈ 3.13 µM)	4 (≈ 6.26 µM)	2 (≈ 3.13 µM)	2 (≈ 3.13 µM)	2 (≈ 3.13 µM)	4 (≈ 6.26 µM)	1 (≈ 1.57 µM)	2 (≈ 3.13 µM)
CCCCCCCCCCCCCCCCc1c(-c2ccc(O)cc2O)oc2cc(O)cc(O)c2c1=O						> 64		> 64
CCCCCCCCCCCCCCCCc1c(-c2ccc(O)cc2O)oc2cc(OC)cc(O)c2c1=O						64 (≈ 122 µM)		32 (≈ 61 µM)
CCCCCc1c(-c2ccc(O)cc2O)oc2cc(O)cc(O)c2c1=O						16 (≈ 44.9 µM)		16 (≈ 44.9 µM)
CCCCCCCCCCCCc1c(-c2ccc(OC)cc2OC)oc2cc(OC)cc(OC)c2c1=O						> 64		> 64
C=CCc1c(-c2ccc(O)cc2O)oc2cc(O)cc(O)c2c1=O						> 64		64 (≈ 196 µM)
CCCCCCCCc1c(-c2ccc(OC)cc2OC)oc2cc(OC)cc(OC)c2c1=O						> 64		> 64
CC(C)=CCC/C(C)=C/CCCc1c(-c2ccc(O)cc2O)oc2cc(O)cc(O)c2c1=O						> 64		32 (≈ 71 µM)
C=CCc1c(-c2ccc(OC)cc2OC)oc2cc(OC)cc(OC)c2c1=O						> 64		> 64
CCCCCCCCc1c(-c2ccc(O)cc2O)oc2cc(OC)cc(O)c2c1=O						16 (≈ 38.8 µM)		8 (≈ 19.4 µM)
COc1cc(O)c2c(=O)c(CCCCc3ccccc3)c(-c3ccc(O)cc3O)oc2c1						16 (≈ 37 µM)		8 (≈ 18.5 µM)
COc1cc(O)c2c(=O)c(CCC=C(C)C)c(-c3ccc(O)cc3O)oc2c1						32 (≈ 83.7 µM)		16 (≈ 41.8 µM)
CCCc1c(-c2ccc(O)cc2O)oc2cc(O)cc(O)c2c1=O						> 64		64 (≈ 195 µM)
CC(C)=CCc1c(-c2ccc(O)c3c2OC(C)(C)C=C3)oc2cc(O)cc(O)c2c1=O [KUWANON A]						10 (≈ 23.8 µM)		5 (≈ 11.9 µM)
CCCCCCc1c(-c2ccc(OC)cc2OC)oc2cc(OC)cc(OC)c2c1=O						> 64		> 64
CCCCc1c(-c2ccc(O)cc2O)oc2cc(OC)cc(O)c2c1=O						32 (≈ 89.8 µM)		16 (≈ 44.9 µM)
CCCCCCc1c(-c2ccc(O)cc2O)oc2cc(O)cc(O)c2c1=O						16 (≈ 43.2 µM)		8 (≈ 21.6 µM)
